target: Human recombinant carboxy-terminal his-tagged LDHA (amino acids 2-332) (Homo sapiens, UniProt P00338); assay: LDHA enzyme inhibition assay (NADH fluorescence); conditions: LDHA IC50 (μM), 1 nM LDHA, NADH and pyruvate, stereochemistry of tested sample given

Row | SMILES | IC50 [µM]
1 | CCC1CN(c2ccc(C3(c4ccsc4)CC(=O)C(Sc4ccccc4Cl)C(=O)N3)cc2)CCO1 (stereo not drawn) [Example 66, 3-(2-chlorophenyl)sulfanyl-6-[4-(2-ethylmorpholin-4-yl)phenyl]-6-(3-thienyl) piperidine-2,4-dione] | 0.089
2 | O=C1CC(c2ccc(N3CCC(F)(F)CC3)cc2)(c2ccsc2)NC(=O)C1Sc1ccccc1Cl (stereo not drawn) [Example 72, 3-(2-chlorophenyl)sulfanyl-6-[4-(4,4-difluoro-1-piperidyl)phenyl]-6-(3-thienyl)piperidine-2,4-dione] | 0.025
3 | CC(C)Oc1nc(C2(c3ccsc3)CC(=O)C(Sc3ccccc3Cl)C(=O)N2)ccc1N1CCOCC1 (stereo not drawn) [Example 73, 3-((2-chlorophenyl)thio)-6-(6-isopropoxy-5-morpholinopyridin-2-yl)-6-(thiophen-3-yl) piperidine-2,4-dione] | 0.111
4 | CCOc1cccc(C2(c3ccsc3)CC(=O)C(Sc3ccccc3Cl)C(=O)N2)n1 (stereo not drawn) [Example 74, 3-(2-chlorophenyl)sulfanyl-6-(6-ethoxy-2-pyridyl)-6-(3-thienyl)piperidine-2,4-dione] | 0.014
5 | CC(C)COc1cccc(C2(c3ccsc3)CC(=O)C(Sc3ccccc3Cl)C(=O)N2)n1 (stereo not drawn) [Example 75, 3-(2-chlorophenyl)sulfanyl-6-(6-isobutoxy-2-pyridyl)-6-(3-thienyl)piperidine-2,4-dione] | 0.07
6 | O=C1CC(c2ccsc2)(c2cccc(OCCC3CC3)n2)NC(=O)C1Sc1ccccc1Cl (stereo not drawn) [Example 81, 3-((2-chlorophenyl)thio)-6-(6-(2-cyclopropyl-ethoxy)pyridin-2-yl)-6-(thiophen-3-yl)piperidine-2,4-dione] | 0.229
7 | CN(C)c1cccc(C2(c3ccsc3)CC(=O)C(Sc3ccccc3Cl)C(=O)N2)n1 (stereo not drawn) [Example 85, 3-((2-chlorophenyl)thio)-6-(6-(dimethylamino)pyridin-2-yl)-6-(thiophen-3-yl)piperidine-2,4-dione] | 0.018
8 | O=C1C[C@](c2ccsc2)(c2cccc(OCCC3CC3)n2)NC(=O)C1Sc1ccccc1Cl (stereo partly drawn) [Example 92, (6S)-3-((2-chlorophenyl)thio)-6-(6-(2-cyclopropyl-ethoxy)pyridin-2-yl)-6-(thiophen-3-yl)piperidine-2,4-dione] | 0.007
9 | O=C1C[C@@](c2ccsc2)(c2cccc(OCCC3CC3)n2)NC(=O)C1Sc1ccccc1Cl (stereo partly drawn) [Example 95, (6R)-3-((2-chlorophenyl)thio)-6-(6-(2-cyclo-propylethoxy)pyridin-2-yl)-6-(thiophen-3-yl) piperidine-2,4-dione] | 0.29
10 | O=C1CC(c2ccsc2)(c2cccc(Oc3cccc4c3NCCC4)n2)NC(=O)C1Sc1ccccc1Cl (stereo not drawn) [Example 102, 3-(2-chlorophenyl)sulfanyl-6-[6-(1,2,3,4-tetrahydro-quinolin-8-yloxy)-2-pyridyl]-6-(3-thienyl) piperidine-2,4-dione] | 0.018
11 | O=C1CC(c2ccsc2)(c2cccc(N3CCCc4cccc(O)c43)n2)NC(=O)C1Sc1ccccc1Cl (stereo not drawn) [Example 105, 3-(2-chlorophenyl)sulfanyl-6-[6-(8-hydroxy-3,4-dihydro-2H-quinolin-1-yl)-2-pyridyl]-9-(3-thienyl)piperidine-2,4-dione] | 0.125
12 | O=C1CC(c2ccc(N3CCC(F)CC3)cc2)(c2ccsc2)NC(=O)C1Sc1ccccc1Cl (stereo not drawn) [Example 107, 3-(2-chlorophenyl)sulfanyl-6-[4-(4-fluoro-1-piperidyl)phenyl]-6-(3-thienyl)piperidine-2,4-dione] | 0.131
13 | O=C1CC(c2ccsc2)(c2cccc(Oc3cccc4c3NCCC4)n2)NC(=O)C1Sc1ccccc1Cl (stereo not drawn) [Example 109, 3-((2-chlorophenyl)thio)-6-(6-((1,2,3,4-tetrahydro-quinolin-8-yl)oxy)pyridin-2-yl)-6-(thiophen-3-yl)piperidine-2,4-dione] | 0.01
14 | O=C1CC(c2ccsc2)(c2cccc(Oc3cccc4c3NCCC4)n2)NC(=O)C1Sc1ccccc1Cl (stereo not drawn) [Example 111, 3-((2-chlorophenyl)thio)-6-(6-((1,2,3,4-tetrahydro-quinolin-8-yl)oxy)pyridin-2-yl)-6-(thiophen-3-yl)piperidine-2,4-dione] | 0.012
15 | O=C1CC(c2ccsc2)(c2cccc(Cc3ccc(Cl)c(F)c3)n2)NC(=O)C1Sc1ccccc1Cl (stereo not drawn) [Example 130, 6-(6-(4-chloro-3-fluoro-benzyl)pyridin-2-yl)-3-((2-chlorophenyl)thio)-6-(thiophen-3-yl)piperidine-2,4-dione] | 0.005

Now from value to compound:

Row | IC50 [µM] | SMILES
16 | 0.01 | O=C1CC(c2ccsc2)(c2cccc(Oc3ccc(Cl)cc3)n2)NC(=O)C1Sc1ccccc1Cl (stereo not drawn) [Example 58, 6′-(4-chlorophenoxy)-5-((2-chlorophenyl)thio)-4-hydroxy-2-(thiophen-3-yl)-2,3-dihydro-[2,2′-bipyridin]-6(1H)-one]
17 | 0.056 | COc1ccc(Oc2cccc(C3(c4ccsc4)CC(=O)C(Sc4ccccc4Cl)C(=O)N3)n2)cc1 (stereo not drawn) [Example 59, 3-(2-chlorophenyl)sulfanyl-6-[6-(4-methoxyphenoxy)-2-pyridyl]-6-(3-thienyl) piperidine-2,4-dione]
18 | 0.009 | O=C1CC(c2ccsc2)(c2cccc(Oc3ccc4c(c3)CCC4)n2)NC(=O)C1Sc1ccccc1Cl (stereo not drawn) [Example 60, 5-((2-chlorophenyl)thio)-6′-((2,3-dihydro-1H-inden-5-yl)oxy)-4-hydroxy-2-(thiophen-3-yl)-2,3-dihydro-[2,2′-bipyridin]-6(1H)-one]
19 | 0.02 | COc1ccccc1Oc1cccc(C2(c3ccsc3)CC(=O)C(Sc3ccccc3Cl)C(=O)N2)n1 (stereo not drawn) [Example 61, 3-(2-chlorophenyl)sulfanyl-6-[6-(2-methoxyphenoxy)-2-pyridyl]-6-(3-thienyl) piperidine-2,4-dione]
20 | 0.036 | O=C1CC(c2ccsc2)(c2cccc(Oc3cc(F)cc(F)c3)n2)NC(=O)C1Sc1ccccc1Cl (stereo not drawn) [Example 62, 3-(2-chlorophenyl)sulfanyl-6-[6-(3,5-difluoro-phenoxy)-2-pyridyl]-6-(3-thienyl)piperidine-2,4-dione]
21 | 0.037 | O=C1CC(c2ccsc2)(c2cccc(Oc3cccc(Cl)c3)n2)NC(=O)C1Sc1ccccc1Cl (stereo not drawn) [Example 63, 6′-(3-chlorophenoxy)-5-((2-chlorophenyl)thio)-4-hydroxy-2-(thiophen-3-yl)-2,3-dihydro-[2,2′-bipyridin]-6(1H)-one]
22 | 0.126 | COc1cccc(Oc2cccc(C3(c4ccsc4)CC(=O)C(Sc4ccccc4Cl)C(=O)N3)n2)c1 (stereo not drawn) [Example 64, 3-(2-chlorophenyl)sulfanyl-6-[6-(3-methoxyphenoxy)-2-pyridyl]-6-(3-thienyl) piperidine-2,4-dione]
23 | 0.008 | O=C1CC(c2ccsc2)(c2cccc(OCc3ccccc3)n2)NC(=O)C1Sc1ccccc1Cl (stereo not drawn) [Example 68, 6′-(benzyloxy)-5-((2-chlorophenyl)thio)-4-hydroxy-2-(thiophen-3-yl)-2,3-dihydro-[2,2′-bipyridin]-6(1H)-one]
24 | 0.056 | O=C1CC(c2ccsc2)(c2cccc(Oc3cccnc3)n2)NC(=O)C1Sc1ccccc1Cl (stereo not drawn) [Example 71, 3-((2-chlorophenyl)thio)-6-(6-(pyridin-3-yloxy)pyridin-2-yl)-6-(thiophen-3-yl)piperidine-2,4-dione]
25 | 0.015 | O=C1CC(c2ccsc2)(c2cccc(Oc3ccc(OC(F)(F)F)cc3)n2)NC(=O)C1Sc1ccccc1Cl (stereo not drawn) [Example 76, 3-(2-chlorophenyl)sulfanyl-6-(3-thienyl)-6-[6-[4-(trifluoromethoxy)phenoxy]-2-pyridyl] piperidine-2,4-dione]
26 | 0.056 | O=C1CC(c2ccsc2)(c2cccc(Oc3cccc(F)c3)n2)NC(=O)C1Sc1ccccc1Cl (stereo not drawn) [Example 80, 3-(2-chlorophenyl)sulfanyl-6-[6-(3-fluorophenoxy)-2-pyridyl]-6-(3-thienyl) piperidine-2,4-dione]
27 | 0.017 | O=C1CC(c2ccsc2)(c2cccc(Oc3cccc4cccnc34)n2)NC(=O)C1Sc1ccccc1Cl (stereo not drawn) [Example 88, 33-(2-chlorophenyl) sulfanyl-6-[6-(8-quinolyloxy)-2-pyridyl]-6-(3-thienyl)piperidine-2,4-dione]
28 | 0.018 | O=C1CC(c2ccsc2)(c2cccc(Oc3cccc4ccncc34)n2)NC(=O)C1Sc1ccccc1Cl (stereo not drawn) [Example 89, 3-(2-chlorophenyl)sulfanyl-6-[6-(8-iso-quinolyloxy)-2-pyridyl]-6-(3-thienyl)piperidine-2,4-dione]
29 | 0.013 | O=C1CC(c2ccsc2)(c2cccc(Oc3cccc4cnccc34)n2)NC(=O)C1Sc1ccccc1Cl (stereo not drawn) [Example 90, 3-((2-chlorophenyl)thio)-6-(6-(isoquinolin-5-yloxy)pyridin-2-yl)-6-(thiophen-3-yl)piperidine-2,4-dione]
30 | 0.023 | COCc1ccccc1Oc1cccc(C2(c3ccsc3)CC(=O)C(Sc3ccccc3Cl)C(=O)N2)n1 (stereo not drawn) [Example 94]
31 | 0.019 | O=C1CC(c2ccsc2)(c2cccc(Oc3ccccn3)n2)NC(=O)C1Sc1ccccc1Cl (stereo not drawn) [Example 96, 3-(2-chlorophenyl)sulfanyl-6-[6-(2-pyridyloxy)-2-pyridyl]-6-(3-thienyl) piperidine-2,4-dione]
32 | 0.167 | O=C1CC(c2ccsc2)(c2cccc(Oc3ccc(F)c4cccnc34)n2)NC(=O)C1Sc1ccccc1Cl (stereo not drawn) [Example 98, 3-(2-chlorophenyl)sulfanyl-6-[6-[(5-fluoro-8-quinolyl)oxy]-2-pyridyl]-6-(3-thienyl)piperidine-2,4-dione]
33 | 0.046 | O=C1CC(c2ccsc2)(c2cccc(Oc3cccc4cccnc34)n2)NC(=O)C1Sc1ccccc1Cl (stereo not drawn) [Example 100, 3-((2-chlorophenyl)thio)-6-(6-(quinolin-8-yloxy)pyridin-2-yl)-6-(thiophen-3-yl)piperidine-2,4-dione]
34 | 0.018 | COCc1ccccc1Oc1cccc(C2(c3ccsc3)CC(=O)C(Sc3ccccc3Cl)C(=O)N2)n1 (stereo not drawn) [Example 101]
35 | 0.141 | O=C1CC(c2ccsc2)(c2cccc(Oc3cccc4[nH]ncc34)n2)NC(=O)C1Sc1ccccc1Cl (stereo not drawn) [Example 103, 3-(2-chlorophenyl)sulfanyl-6-[6-(1H-indazol-4-yloxy)-2-pyridyl]-6-(3-thienyl) piperidine-2,4-dione]
36 | 0.006 | O=C1CC(c2ccsc2)(c2cccc(Oc3ccc(F)c(C(F)(F)F)c3)n2)NC(=O)C1Sc1ccccc1Cl (stereo not drawn) [Example 123]
